Measured values taken from US10071081B2, “Compositions of 1,2,4-oxadiazole benzoic acid compounds and methods for their use” (PTC Therapeutics, Inc., priority 2003, dated 2018).

Test system: luciferase reporter construct containing a UGA premature termination codon
Assay: cell-based luciferase reporter assay
Parameters: species or system Human; key to Activity: *****: both extremely high potency and extremely high efficacy of protein synthesis; ****: extremely high potency of protein synthesis and very high efficacy; ****: very high potency of protein synthesis and extremely high efficacy; ***: both very high potency and very high efficacy of protein synthesis; **: very high potency of protein synthesis and significant efficacy; **: significant potency of protein synthesis and very high efficacy; *: significant potency and efficacy of protein synthesis
Conditions: ranking combining potency and efficacy of protein synthesis; UGA luciferase reporter stably transfected in 293T Human Embryonic Kidney cells
Experimental: Activity measurements in Table I were performed in a cell-based luciferase reporter assay (as described in Section 4.2) comprising a luciferase reporter construct containing a UGA premature termination codon that was stably transfected in 293T Human Embryonic Kidney cells. A small molecule, 3-[3-(4-Isopropyl-phenyl)-2,5-dioxo-imidazolidin-1-yl]-benzoic acid, known to allow readthrough of premature termination codons was used was used as an internal standard. Activity measurements are based on the qualitative relation between the minimum concentration of compound required to produce a given protein in a cell (potency) and the maximum amount of protein produced by the cell (efficacy). Potency and efficacy activities are ranked as either extremely high, very high or significant. The combination of these activities is used to determine the activity ranking.
Two assays were developed for use in high throughput screens to identify small molecules that promote nonsense suppression. Each assay utilized luciferase because it is a functional reporter gene assay (light is only produced if the protein is functional) and it is extremely sensitive (Light intensity is proportional to luciferase concentration in the nM range). The first assay is a cell-based luciferase reporter assay and the second is a biochemical assay consisting of rabbit reticulocyte lysate and a nonsense-containing luciferase reporter mRNA. In the cell-based assay, a luciferase reporter construct containing a UGA premature termination codon was stably transfected in 293T Human Embryonic Kidney cells. In the biochemical assay, mRNA containing a UGA premature termination codon was used as a reporter in an in vitro translation reaction using rabbit reticulocyte lysate supplemented with tRNA, hemin, creatine kinase, amino acids, KOAc, Mg(OAc)2, and creatine phosphate. […] Synthetic mRNA was prepared in vitro using the T7 promoter and the MegaScript in vitro transcription kit (Ambion).
To determine whether compounds also function in vivo, a stable cell line harboring the UGA nonsense-containing luciferase gene was treated with selected compounds. Cells were grown in standard medium supplemented with 1% penicillin-streptomycin (P/S) and 10% fetal bovine serum (FBS) to 70% confluency and split 1:1 the day before treatment. On the following day, cells were trypsinized and 40,000 cells were added to each well of a 96-well tissue culture dish. Serial dilutions of each compound were prepared to generate a six-point dose response curve spanning 2 logs (30 μM to 0.3 μM). The final concentration of the DMSO solvent remained constant at 1% in each well. Cells treated with 1% DMSO served as the background standard, and cells treated with gentamicin served as a positive control.

SMILES: O=C(O)c1cccc(-c2noc(-c3ccc(F)c(F)c3)n2)c1 [Compound 39, 3-[5-(3,4-Difluoro-phenyl)-[1,2,4]oxadiazol-3-yl]-benzoic acid]
- Activity: *****

SMILES: COc1cc(-c2nc(-c3cccc(C(=O)O)c3)no2)cc(OC)c1OC [Compound 10, 3-[5-(3,4,5-Trimethoxy-phenyl)-[1,2,4]oxadiazol-3-yl]-benzoic acid]
- Activity: ***

SMILES: CC(C)(C)c1ccc(-c2nc(-c3cccc(C(=O)O)c3)no2)cc1 [Compound 25, 3-[5-(4-tert-Butyl-phenyl)-[1,2,4]oxadiazol-3-yl]-benzoic acid]
- Activity: *****

SMILES: Nc1ccc(-c2nc(-c3cccc(C(=O)O)c3)no2)cc1 [Compound 93, 3-[5-(4-Amino-phenyl)-[1,2,4]oxadiazol-3-yl]-benzoic acid]
- Activity: ****

SMILES: O=C(O)c1cccc(-c2noc(-c3ccc(N4CCCC4)nc3)n2)c1 [Compound 82, 3-[5-(6-Pyrrolidin-1-yl-pyridin-3-yl)-[1,2,4]oxadiazol-3-yl]-benzoic acid]
- Activity: ****

SMILES: O=C(O)c1cccc(-c2noc(-c3ccc4c(c3)OC(F)(F)O4)n2)c1 [Compound 70, 3-[5-(2,2-Difluoro-benzo[1,3]dioxol-5-yl)-[1,2,4]oxadiazol-3-yl]-benzoic acid]
- Activity: ***

SMILES: O=C(O)c1cccc(-c2noc(-c3ccc([N+](=O)[O-])cc3)n2)c1 [Compound 11, 3-[5-(4-Nitro-phenyl)-[1,2,4]oxadiazol-3-yl]-benzoic acid]
- Activity: ****

SMILES: CN(C)c1ccc(-c2nc(-c3cccc(C(=O)O)c3)no2)cc1 [Compound 18, 3-[5-(4-Dimethylamino-phenyl)-[1,2,4]oxadiazol-3-yl]-benzoic acid]
- Activity: ****

SMILES: COc1ccccc1-c1nc(-c2cccc(C(=O)O)c2)no1 [Compound 19, 3-[5-(2-Methoxy-phenyl)-[1,2,4]oxadiazol-3-yl]-benzoic acid]
- Activity: ***

SMILES: O=C(O)c1cccc(-c2noc(-c3ccno3)n2)c1 [Compound 52, 3-(5-Isoxazol-5-yl-[1,2,4]oxadiazol-3-yl)-benzoic acid]
- Activity: **

SMILES: O=C(O)c1cccc(-c2noc(Cc3ccc(Cl)cc3)n2)c1 [Compound 33, 3-[5-(4-Chloro-benzyl)-[1,2,4]oxadiazol-3-yl]-benzoic acid]
- Activity: ****

SMILES: O=C(O)c1cccc(-c2noc(Cc3cccs3)n2)c1 [Compound 32, 3-(5-Thiophen-2-ylmethyl-[1,2,4]oxadiazol-3-yl)-benzoic acid]
- Activity: ****

SMILES: O=C(O)c1cccc(-c2noc(-c3ccccc3Cl)n2)c1 [Compound 46, 3-[5-(2-Chloro-phenyl)-[1,2,4]oxadiazol-3-yl]-benzoic acid]
- Activity: *****

SMILES: COCc1nc(-c2cccc(C(=O)O)c2)no1 [Compound 43, 3-(5-Methoxymethyl-[1,2,4]oxadiazol-3-yl)-benzoic acid]
- Activity: *

SMILES: COc1ccc(-c2nc(-c3cccc(C(=O)O)c3)no2)cc1OC [Compound 62, 3-[5-(3,4-Dimethoxy-phenyl)-[1,2,4]oxadiazol-3-yl]-benzoic acid]
- Activity: ****

SMILES: O=C(O)c1cccc(-c2noc(-c3c(F)cccc3F)n2)c1 [Compound 36, 3-[5-(2,6-Difluoro-phenyl)-[1,2,4]oxadiazol-3-yl]-benzoic acid]
- Activity: ****

SMILES: Cc1ccc(F)c(-c2nc(-c3cccc(C(=O)O)c3)no2)c1 [Compound 68, 3-[5-(2-Fluoro-5-methyl-phenyl)-[1,2,4]oxadiazol-3-yl]-benzoic acid]
- Activity: ***

SMILES: O=C(O)c1cccc(-c2noc(-c3cccnc3Cl)n2)c1 [Compound 63, 3-[5-(2-Chloro-pyridin-3-yl)-[1,2,4]oxadiazol-3-yl]-benzoic acid]
- Activity: ****

SMILES: O=C(O)c1cccc(-c2noc(-c3ccc(F)cc3F)n2)c1 [Compound 57, 3-[5-(2,4-Difluoro-phenyl)-[1,2,4]oxadiazol-3-yl]-benzoic acid]
- Activity: ****

SMILES: CC(C)Cc1ccc(-c2nc(-c3cccc(C(=O)O)c3)no2)cc1 [Compound 07, 3-[5-(4-Isobutyl-phenyl)-[1,2,4]oxadiazol-3-yl]-benzoic acid]
- Activity: **

SMILES: O=C(O)c1cccc(-c2noc(-c3c(O)cccc3F)n2)c1 [Compound 85, 3-[5-(2-Fluoro-6-hydroxy-phenyl)-[1,2,4]oxadiazol-3-yl]-benzoic acid]
- Activity: **

SMILES: O=C(O)c1cccc(-c2noc(-c3ccc(Cl)nc3)n2)c1 [Compound 53, 3-[5-(6-Chloro-pyridin-3-yl)-[1,2,4]oxadiazol-3-yl]-benzoic acid]
- Activity: ****

SMILES: O=C(O)c1cccc(-c2noc(-c3ccc(N4CCCCC4)nc3)n2)c1 [Compound 84, 3-[5-(3,4,5,6-Tetrahydro-2H-[1,2′]bipyridinyl-5′-yl)-[1,2,4]oxadiazol-3-yl]-benzoic acid]
- Activity: ****

SMILES: O=C(O)c1cccc(-c2noc(-c3ccc(F)cc3)n2)c1 [Compound 05, 3-[5-(4-Fluoro-phenyl)-[1,2,4]oxadiazol-3-yl]-benzoic acid]
- Activity: *****

SMILES: O=C(O)c1cccc(-c2noc(CC3CCCC3)n2)c1 [Compound 56, 3-(5-Cyclopentylmethyl-[1,2,4]oxadiazol-3-yl)-benzoic acid]
- Activity: ***

SMILES: O=C(O)c1cccc(-c2noc(-c3ccc(Br)cc3F)n2)c1 [Compound 74, 3-[5-(4-Bromo-2-fluoro-phenyl)-[1,2,4]oxadiazol-3-yl]-benzoic acid]
- Activity: ***

SMILES: CCCCCOc1ccc(-c2nc(-c3cccc(C(=O)O)c3)no2)cc1 [Compound 02, 3-[5-(4-Pentyloxy-phenyl)-[1,2,4]oxadiazol-3-yl]-benzoic acid]
- Activity: ***

SMILES: O=C(O)c1cccc(-c2noc(-c3ccccc3)n2)c1 [Compound 08, 3-(5-Phenyl-[1,2,4]oxadiazol-3-yl)-benzoic acid]
- Activity: *****

SMILES: O=C(O)c1cccc(-c2noc(-c3cc(F)ccc3F)n2)c1 [Compound 44, 3-[5-(2,5-Difluoro-phenyl)-[1,2,4]oxadiazol-3-yl]-benzoic acid]
- Activity: ****

SMILES: CCCCc1nc(-c2cccc(C(=O)O)c2)no1 [Compound 26, 3-(5-Butyl-[1,2,4]oxadiazol-3-yl)-benzoic acid]
- Activity: ****

SMILES: O=C(O)c1cccc(-c2noc(-c3cccnc3)n2)c1 [Compound 58, 3-(5-Pyridin-3-yl-[1,2,4]oxadiazol-3-yl)-benzoic acid]
- Activity: ***

SMILES: CCC(c1ccccc1)c1nc(-c2cccc(C(=O)O)c2)no1 (stereo not shown) [Compound 45, 3-[5-(1-Phenyl-propyl)-[1,2,4]oxadiazol-3-yl]-benzoic acid]
- Activity: *

SMILES: O=C(O)c1cccc(-c2noc(C3CCC3)n2)c1 [Compound 60, 3-(5-Cyclobutyl-[1,2,4]oxadiazol-3-yl)-benzoic acid]
- Activity: **

SMILES: O=C(O)c1cccc(-c2noc(-c3ccc(-c4ccccc4)cc3F)n2)c1 [Compound 81, 3-[5-(3-Fluoro-biphenyl-4-yl)-[1,2,4]oxadiazol-3-yl]-benzoic acid]
- Activity: **

SMILES: O=C(O)c1cccc(-c2noc(Cc3ccccc3)n2)c1 [Compound 42, 3-(5-Benzyl-[1,2,4]oxadiazol-3-yl)-benzoic acid]
- Activity: ***

SMILES: COc1ccc(-c2nc(-c3cccc(C(=O)O)c3)no2)cc1 [Compound 12, 3-[5-(4-Methoxy-phenyl)-[1,2,4]oxadiazol-3-yl]-benzoic acid]
- Activity: *****

SMILES: COc1ccc(-c2noc(-c3ccc(F)cc3)n2)cc1C(=O)O [Compound 76, 5-[5-(4-Fluoro-phenyl)-[1,2,4]oxadiazol-3-yl]-2-methoxy-benzoic acid]
- Activity: *

SMILES: COCCOCCOCCOC(=O)c1cccc(-c2noc(-c3ccccc3F)n2)c1 [Compound 89, 3-[5-(2-Fluoro-phenyl)-[1,2,4]oxadiazol-3-yl]-benzoic acid 2-[2-(2-methoxy-ethoxy)-ethoxy]-ethyl ester]
- Activity: **

SMILES: O=C(O)c1cccc(-c2noc(-c3ccc(CCl)cc3)n2)c1 [Compound 24, 3-[5-(4-Chloromethyl-phenyl)-[1,2,4]oxadiazol-3-yl]-benzoic acid]
- Activity: *****

SMILES: Cc1ccc(-c2nc(-c3cccc(C(=O)O)c3)no2)cc1 [Compound 04, 3-(5-p-Tolyl-[1,2,4]oxadiazol-3-yl)-benzoic acid]
- Activity: *****
